# Results as given in patent US20220204497A1, “NOVEL COMPOUND HAVING ANTICANCER ACTIVITY, AND METHOD FOR PRODUCING SAME” (MEDICINAL BIOCONVERGENCE RESEARCH CENTER, priority 2019, published 2022).
# Columns and labels:
# AIMP2-DX2 = biological target: T1, AIMP2-DX2 (Homo sapiens, UniProt Q13155); assay: DX2-nanoluciferase assay (DX2 expression change) in transfected A549 cells; conditions: inhibitory effect on AIMP2-DX2 expression; for inhibition at 40 µM: A549, 4 h, read-out: DX-Nanoluciferase activity (40 μM), 40 μM, 4 hours treatment, A549 cells transfected with nanoluciferase-DX2
# T1 sequence (Q13155 1-251 isoform Q13155-2): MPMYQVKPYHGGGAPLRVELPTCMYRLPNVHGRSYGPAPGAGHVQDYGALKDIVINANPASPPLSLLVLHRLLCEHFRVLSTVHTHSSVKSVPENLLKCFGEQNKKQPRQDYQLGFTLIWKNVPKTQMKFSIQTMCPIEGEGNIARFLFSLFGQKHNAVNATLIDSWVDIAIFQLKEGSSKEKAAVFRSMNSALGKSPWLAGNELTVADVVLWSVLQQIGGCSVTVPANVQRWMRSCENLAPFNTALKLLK
# Method: After cloning DX2 into a plasmid expressing nanoluciferase, the plasmid was transfected into A549 cells. Transfected cells were seeded 1×10^4 per well in a 96-well plate and stabilized for 12 hours. […] Cell viability was measured by the MTT method after 72 hours of treatment with each concentration of the compound in A549 cells.
# A549 cells = assay: Cell viability by MTT method in A549 cells; format: cell-based; design: concentration or dose not given beside the values; conditions: 72 hours treatment
Compound,inhibition at 40 µM (AIMP2-DX2) [%],Cell Viability (% inhibition) (A549) (A549 cells) [%],"DX-Nanoluciferase activity (40 μM) (AIMP2-DX2; 40 μM, 4 hours treatment, A549 cells transfected with nanoluciferase-DX2)"
"Cc1ccc(S(=O)(=O)N[C@@H](Cc2c[nH]c3ccccc23)C(=O)Nc2ccc(N3C[C@@H](C)O[C@@H](C)C3)nc2)cc1 [Compound 75, (S)—N-(6-((2S,6R)-2,6-dimethylmorpholino)pyridin-3-yl)-3-(1H-indol-3-yl)-2-(4-methylphenylsulfonamido)propanamide]",57.8 ± 8,79.58 ± 3.72,
"Cc1ccc(S(=O)(=O)N[C@@H](Cc2c[nH]c3ccccc23)C(=O)Nc2ccc(N3CCOCC3)c(F)c2)cc1 [Compound 77, (S)—N-(3-fluoro-4-morpholinophenyl)-3-(1H-indol-3-yl)-2-(4-methylphenylsulfonamido)propanamide]",23.9 ± 7.01,80.59 ± 1.49,
"O=C(Nc1ccc(N2CCOCC2)cc1)[C@H](Cc1c[nH]c2ccccc12)NS(=O)(=O)c1ccc([N+](=O)[O-])cc1 [Compound 78, (S)-3-(1H-indol-3-yl)-N-(4-morpholinophenyl)-2-(4-nitrophenylsulfonamido)propanamide]",44.5 ± 12.7,67.08 ± 1.45,
"O=C(Nc1ccc(N2CCOCC2)cc1)[C@H](Cc1c[nH]c2ccccc12)NS(=O)(=O)c1ccc(Br)cc1 [Compound 79, (S)-2-(4-Bromophenylsulfonamido)-3-(1H-indol-3-yl)-N-(4-morpholinophenyl)propanamide]",30.6 ± 15.3,78.31 ± 1.91,
"COc1ccc(S(=O)(=O)N[C@@H](Cc2c[nH]c3ccccc23)C(=O)Nc2ccc(N3CCOCC3)cc2)cc1 [Compound 80, (S)-3-(1H-indol-3-yl)-2-(4-methoxyphenylsulfonamido)-N-(4-morpholinophenyl)propanamide]",44.9 ± 13.3,38.64 ± 1.03,
"CC(C)c1ccc(S(=O)(=O)N[C@@H](Cc2c[nH]c3ccccc23)C(=O)Nc2ccc(N3CCOCC3)cc2)cc1 [Compound 81, (S)-3-(1 Indol-3-yl)-2-(4-isopropylphenylsulfonamido)-N-(4 morpholinophenyl)propanamide]",,73.98 ± 0.39,77.74 ± 6.75
"COc1ccc(-c2csc(NC(=O)[C@H](Cc3c[nH]c4ccccc34)NS(=O)(=O)c3ccc(C(C)C)cc3)n2)cc1 [Compound 82, (S)-3-(1H-indol-3-yl)-2-(4-isopropylphenylsulfonamido)-N-(4-(4-methoxyphenyl)thiazol-2-yl)propanamide]",29.3 ± 2.7,96.64 ± 0.09,
"Cc1ccc(S(=O)(=O)N[C@@H](Cc2c[nH]c3ccccc23)C(=O)Nc2nc(C)cs2)cc1 [Compound 83, (S)-3-(1H-indol-3-yl)-2-(4-methylphenylsulfonamido)-N-(4-methylthiazol-2-yl)propanamide]",17.4 ± 3.23,97.43 ± 2.01,
"Cc1ccc(S(=O)(=O)N[C@@H](Cc2c[nH]c3ccccc23)C(=O)Nc2nc3ccccc3s2)cc1 [Compound 84, (S)—N-(benzo[d]thiazol-2-yl)-3-(1H-indol-3-yl)-2-(4-methylphenylsulfonamido)propanamide]",-15.8 ± 6.29,20.93 ± 11.89,
"O=C(O)[C@H](Cc1c[nH]c2ccccc12)NS(=O)(=O)c1ccc(Br)cc1 [Compound 85, (S)-2-(4-Bromophenylsulfonamido)-3-(1H-indol-3-yl)propanoic acid]",20.2 ± 1.65,10.28 ± 3.54,
"Cc1ccc(S(=O)(=O)N[C@@H](CC(C)C)C(=O)Nc2ncc(N3CCOCC3)s2)cc1 [Compound 86, (S)-4-Methyl-2-(4-methylphenylsulfonamido)-N-(5-morpholinothiazol-2-yl)pentanamide]",37.7 ± 6.09,20.70 ± 1.43,
"COc1ccc(-c2nnc(NC(=O)[C@H](CC(C)C)NS(=O)(=O)c3ccc(C)cc3)s2)cc1 [Compound 87, (S)—N-(5-(4-methoxyphenyl)-1,3,4-thiadiazol-2-yl)-4-methyl-2-(4-methylphenylsulfonamido)pentanamide]",50.2 ± 7.05,36.61 ± 3.85,
"COc1ccc(-c2cc(NC(=O)[C@H](CC(C)C)NS(=O)(=O)c3ccc(C)cc3)no2)cc1 [Compound 88, (S)—N-(5-(4-methoxyphenyl)isoxazol-3-yl)-4-methyl-2-(4-methylphenylsulfonamido)pentanamide]",57 ± 8.83,46.96 ± 4.60,
"COc1ccc(-c2cc(NC(=O)[C@H](CC(C)C)NS(=O)(=O)c3ccc(C)cc3)on2)cc1 [Compound 89, (S)—N-(3-(4-methoxyphenyl)isoxazol-5-yl)-4-methyl-2-(4-methylphenylsulfonamido)pentanamide]",47.5 ± 13.3,98.73 ± 0.92,
"Cc1ccc(S(=O)(=O)N[C@@H](CC(C)C)C(=O)Nc2nc(-c3ccc(C(F)(F)F)cc3)cs2)cc1 [Compound 90, (S)-4-Methyl-2-(4-methylphenylsulfonamido)-N-(4-(4-(trifluoromethyl)phenyl)thiazol-2-yl)pentanamide]",65.4 ± 4.13,86.36 ± 0.64,
"COc1ccc(-c2csc(NC(=O)[C@H](CC(C)C)NS(=O)(=O)c3ccc(C)cc3)n2)cc1OC [Compound 91, (S)—N-(4-(3,4-dimethoxyphenyl)thiazol-2-yl)-4-methyl-2-(4-methylphenylsulfonamido)pentanamide]",16.4 ± 8.65,87.36 ± 2.13,
"Cc1ccc(S(=O)(=O)N[C@@H](CC(C)C)C(=O)Nc2nc(-c3ccc(F)cc3Br)cs2)cc1 [Compound 92, (S)—N-(4-(2-bromo-4-fluorophenyl)thiazol-2-yl)-4-methyl-2-(4-methylphenylsulfonamido)pentanamide]",31.5 ± 6.84,100.05 ± 1.22,
"Cc1ccc(S(=O)(=O)N[C@@H](CC(C)C)C(=O)Oc2ccc(-c3csc(N)n3)cc2)cc1 [Compound 93, (S)-4-(2-Aminothiazol-4-yl)phenyl 4-methyl-2-(4-methylphenylsulfonamido)pentanoate]",22.5 ± 3.96,48.85 ± 9.03,
"Cc1ccc(S(=O)(=O)N[C@@H](CC(C)C)C(=O)Nc2nc(-c3ccc(F)cc3)cs2)cc1 [Compound 94, (S)—N-(4-(4-fluorophenyl)thiazol-2-yl)-4-methyl-2-(4-methylphenylsulfonamido)pentanamide]",11.5 ± 7.25,101.42 ± 0.79,
"Cc1ccc(S(=O)(=O)N[C@@H](CC(C)C)C(=O)Nc2nc(-c3ccc(OC(F)(F)F)cc3)cs2)cc1 [Compound 95, (S)-4-Methyl-2-(4-methylphenylsulfonamido)-N-(4-(4-(trifluoromethoxy)phenyl)thiazol-2-yl)pentanamide]",22.6 ± 5.29,92.97 ± 0.09,
